Measured values: patent US4587333A, “Cephalosporins and their production” (Takeda Chemical Industries, Ltd., priority 1983, dated 1986)
Values after ≈ are worked out from the molar mass of the structure shown.

Assays:
[1] = tested on: β-lactamase produced by Serratia marcescens TN 81; experiment: stability to β-lactamase (relative ratio of hydrolysis rate); assay type: biochemical; settings: CER rated at 100
From the text: (§1) In the above Table 3, the stabilities against the β-lactamase produced by Escherichia coli TN 713 and β-lactamase produced by Klebsiella oxytoca TN 1719 are expressed on a numerical scale, whereby the stabilities of PCG against these are rated at 100. Also, the stabilities against the β-lactamase produced by Serratia marcescens and β-lactamase produced by Proteus vulgaris are expressed on a numerical scale, whereby the stabilities of CER against these are rated at 100.

[2] = tested on: β-lactamase produced by Proteus vulgalis GN 4413; experiment: as above; assay type: biochemical; settings: CER rated at 100
From the text: as §1

[3] = tested on: β-lactamase produced by Klebsiella oxytoca TN 1719; experiment: as above; assay type: biochemical; settings: PCG rated at 100
From the text: as §1

[4] = tested on: β-lactamase produced by Escherichia coli TN 713; experiment: as above; assay type: biochemical; settings: PCG rated at 100
From the text: as §1

[5] = tested on: Serratia marcescens IFO 12648; experiment: antimicrobial spectrum (minimal inhibitory concentration); assay type: cell-based; settings: IFO12648, pH 7.0
From the text: (§2) The antimicrobial spectra of the compound (I) are shown in Table 1. | *Culture medium: 17.5 g of Bacto antibiotic medium 3 (Difco), 5 g of | Bacto yeast extract (Difco), 20 g of Bacto agar (Difco), 1 l of distilled | water; pH 7.0 | The amount of inoculated microorganism: 1 loopful of about 10^6 /ml o | microorganism suspension.

[6] = tested on: Bacillus megaterium IFO 12108; experiment: as above; assay type: cell-based; settings: Priestia megaterium, IFO12108, pH 7.0
From the text: as §2

[7] = tested on: Escherichia coli NIHJ JC-2; experiment: as above; assay type: cell-based; settings: NIHJJC2, pH 7.0
From the text: as §2

[8] = tested on: Pseudomonas aeruginosa IFO 3080; experiment: as above; assay type: cell-based; settings: IFO3080, pH 7.0
From the text: as §2

[9] = tested on: Brevibacterium thiogenitalis ATCC 19240; experiment: as above; assay type: cell-based; settings: Corynebacterium glutamicum, ATCC19240, pH 7.0
From the text: as §2

[10] = tested on: Proteus vulgalis IFO 3988; experiment: as above; assay type: cell-based; settings: pH 7.0
From the text: as §2

[11] = tested on: Klebsiella pneumoniae IFO 3317; experiment: as above; assay type: cell-based; settings: IFO3317, pH 7.0
From the text: as §2

[12] = tested on: Citrobacter freundii IFO 12681; experiment: as above; assay type: cell-based; settings: IFO12681, pH 7.0
From the text: as §2

[13] = tested on: Staphylococcus aureus FDA 209P; experiment: as above; assay type: cell-based; settings: FDA209P, pH 7.0
From the text: as §2

[14] = tested on: Alcaligenes faecalis IFO 13111; experiment: as above; assay type: cell-based; settings: IFO13111, pH 7.0
From the text: as §2

[15] = tested on: Salmonella typhimurium IFO 12529; experiment: as above; assay type: cell-based; settings: Salmonella enterica, pH 7.0
From the text: as §2

[16] = tested on: Acinetobacter calcoaceticus IFO 12552; experiment: as above; assay type: cell-based; settings: IFO12552, pH 7.0
From the text: as §2

[17] = tested on: Bacillus subtilis NIHJ PCI219; experiment: as above; assay type: cell-based; settings: NIHJPCI219, pH 7.0
From the text: as §2

[18] = stability in aqueous solution; assay type: physicochemical
β-lactamase = experiment: stability to β-lactamase (overall statement); assay type: biochemical; settings: as seen from Table 3
From the text: as §1

[19] = property of the substance (amphoteric); assay type: physicochemical; settings: dihydrochloride is neutral
solubility = assay type: physicochemical
Escherichia coli 0-111 = experiment: therapeutic effect to infectious disease of mice; assay type: in vivo; settings: 0111; mice infected with Escherichia coli 0-111; subcutaneous (SC); TAN-547 hydrochloride(s)
[20] = acute toxicity, subcutaneous administration to mice; assay type: in vivo; settings: subcutaneously, 1 g/kg
[21] = dimethylsulfoxide, methanol, acetone, ethyl acetate
[22] = water, aqueous acetone, aqueous alcohol

Compound	Relative ratio of hydrolysis rate [1]	Relative ratio of hydrolysis rate [2]	Relative ratio of hydrolysis rate [3]	Relative ratio of hydrolysis rate [4]	MIC [5] [µg/mL]	MIC [6] [µg/mL]	MIC [7] [µg/mL]	MIC [8] [µg/mL]	MIC [9] [µg/mL]	MIC [10] [µg/mL]	MIC [11] [µg/mL]	MIC [12] [µg/mL]	MIC [13] [µg/mL]	MIC [14] [µg/mL]	MIC [15] [µg/mL]	MIC [16] [µg/mL]	MIC [17] [µg/mL]	Stability ([18]; acidic aqueous solution)	Stability ([18]; basic aqueous solution)	Stability ([18]; neutral aqueous solution)	other results
CC1(C)S[C@@H]2[C@H](NC(=O)Cc3ccccc3)C(=O)N2[C@H]1C(=O)O [PCG, benzylpenicillin, reference compound]	12	16	100	100	–	–	–	–	–	–	–	–	–	–	–	–	–	–	–	–	–
CC(N)C(=O)NC(C)C(=O)NC(CCCNC(=N)N)C(O)CC(=O)OCC1=C(C(=O)O)N2C(=O)C(NC=O)(NC(=O)CCCC(N)C(=O)O)C2SC1 (stereo not drawn) [TAN-547 B]	< 0.01	< 0.01	< 0.01	< 0.01	50 (≈ 65.9 µM)	12.5 (≈ 16.5 µM)	25 (≈ 32.9 µM)	> 50	6.25 (≈ 8.24 µM)	25 (≈ 32.9 µM)	50 (≈ 65.9 µM)	50 (≈ 65.9 µM)	> 50	6.25 (≈ 8.24 µM)	25 (≈ 32.9 µM)	3.13 (≈ 4.12 µM)	12.5 (≈ 16.5 µM)	Unstable	Unstable	slightly unstable	stability to β-lactamase (β-lactamase): remarkably stable; Property of the substance [19]: Amphoteric substance; Solubility (solubility; [21]): Hardly soluble; Solubility (solubility; [22]): Easily soluble; ED50 (Escherichia coli 0-111): 17.2 mg/kg
O=C(Cc1cccs1)N[C@@H]1C(=O)N2C(C(=O)[O-])=C(C[n+]3ccccc3)CS[C@H]12 [CER, cephaloridine, reference compound]	100	100	30	21	–	–	–	–	–	–	–	–	–	–	–	–	–	–	–	–	–
CCN1CCN(C(=O)N[C@@H](C(=O)N[C@@H]2C(=O)N3C(C(=O)O)=C(CSc4nnnn4C)CS[C@H]23)c2ccc(O)cc2)C(=O)C1=O [CPZ, cefoperazone, reference compound]	11.6	10.5	1.55	11.2	–	–	–	–	–	–	–	–	–	–	–	–	–	–	–	–	–
CC(N)C(=O)NC(C)C(=O)NC(C)C(=O)NC(CCCNC(=N)N)C(O)CC(=O)OCC1=C(C(=O)O)N2C(=O)C(NC(=O)CCCC(N)C(=O)O)C2SC1 (stereo not drawn) [TAN-547 F]	–	–	–	–	> 100	1.56 (≈ 1.98 µM)	> 100	> 100	3.13 (≈ 3.98 µM)	100 (≈ 127 µM)	100 (≈ 127 µM)	> 100	12.5 (≈ 15.9 µM)	12.5 (≈ 15.9 µM)	100 (≈ 127 µM)	100 (≈ 127 µM)	1.56 (≈ 1.98 µM)	Slightly unstable	Unstable	Slightly unstable	Property of the substance [19]: Amphoteric substance; Solubility (solubility; [21]): Hardly soluble; Solubility (solubility; [22]): Easily soluble; ED50 (Escherichia coli 0-111): 25 mg/kg
CC(N)C(=O)NC(CCCNC(=N)N)C(O)CC(=O)OCC1=C(C(=O)O)N2C(=O)C(NC(=O)CCCC(N)C(=O)O)C2SC1 (stereo not drawn) [TAN-547 D]	–	–	–	–	> 100	0.78 (≈ 1.21 µM)	50 (≈ 77.6 µM)	> 100	1.56 (≈ 2.42 µM)	50 (≈ 77.6 µM)	100 (≈ 155 µM)	> 100	25 (≈ 38.8 µM)	12.5 (≈ 19.4 µM)	50 (≈ 77.6 µM)	50 (≈ 77.6 µM)	0.78 (≈ 1.21 µM)	Slightly unstable	Unstable	Slightly unstable	Property of the substance [19]: Amphoteric substance; death [20]: no death was observed; Solubility (solubility; [21]): Hardly soluble; Solubility (solubility; [22]): Easily soluble; ED50 (Escherichia coli 0-111): 9.92 mg/kg
CC(N)C(=O)NC(CCCNC(=N)N)C(O)CC(=O)OCC1=C(C(=O)O)N2C(=O)C(NC=O)(NC(=O)CCCC(N)C(=O)O)C2SC1 (stereo not drawn) [TAN-547 A]	< 0.01	< 0.01	< 0.01	< 0.01	50 (≈ 72.7 µM)	12.5 (≈ 18.2 µM)	25 (≈ 36.4 µM)	> 50	6.25 (≈ 9.09 µM)	50 (≈ 72.7 µM)	50 (≈ 72.7 µM)	50 (≈ 72.7 µM)	> 50	6.25 (≈ 9.09 µM)	50 (≈ 72.7 µM)	1.56 (≈ 2.27 µM)	12.5 (≈ 18.2 µM)	Unstable	Unstable	slightly unstable	stability to β-lactamase (β-lactamase): remarkably stable; Property of the substance [19]: Amphoteric substance; Solubility (solubility; [21]): Hardly soluble; Solubility (solubility; [22]): Easily soluble; ED50 (Escherichia coli 0-111): 18.2 mg/kg
CC(N)C(=O)NC(C)C(=O)NC(CCCNC(=N)N)C(O)CC(=O)OCC1=C(C(=O)O)N2C(=O)C(NC(=O)CCCC(N)C(=O)O)C2SC1 (stereo not drawn) [TAN-547 E]	–	–	–	–	> 100	1.56 (≈ 2.18 µM)	50 (≈ 69.9 µM)	> 100	3.13 (≈ 4.37 µM)	50 (≈ 69.9 µM)	100 (≈ 140 µM)	> 100	25 (≈ 34.9 µM)	12.5 (≈ 17.5 µM)	50 (≈ 69.9 µM)	100 (≈ 140 µM)	1.56 (≈ 2.18 µM)	Slightly unstable	Unstable	Slightly unstable	Property of the substance [19]: Amphoteric substance; Solubility (solubility; [21]): Hardly soluble; Solubility (solubility; [22]): Easily soluble; ED50 (Escherichia coli 0-111): 21 mg/kg
